The text below walks through data of article PMC7248570 (Frontiers in Microbiology, 2020).

The subject of one assay is CgLAO. The format is biochemical, Infundibulicybe geotropa.
For another assay, the system named is CgmycLAO. It counts as biochemical, Infundibulicybe geotropa.

Usually Km stands for the concentration of substrate that gives half-maximal velocity. With `CC(C)C[C@H](N)C(=O)O` [L-Leu], the Km stood at 550 ± 60 µM in the assay on CgLAO and 1520 ± 60 µM in the assay on CgmycLAO.
